Earlier results in patent US20150289553A1, “METHOD OF DEVELOPING SAFE AND EFFECTIVE DIETARY SUPPLEMENTS” (priority 2014, published 2015).
Like-named read-outs stand apart in the source and are kept apart here.

Columns and labels:
[1] = for Clinically Effective Dosage Range: daily dosage, adults (18+ yrs.); for Dataset 2 Clinical Efficacy: Table 5, multivitamin/mineral for adult U.S. women
[2] = high intake of supplemental calcium; men
[3] = calcium supplements; almost 24,000 participants
[4] = 400 IU/d; 19 trials, 135,967 subjects
[5] = 600 IU every other day; 39,876 women
[6] = 400 IU every other day for 8 years; 14,641 men
[7] = not given; remark: listed apart in the source
[8] = Table 5, multivitamin/mineral for adult U.S. women
[9] = adults (18+ yrs.), derived from published literature and regulatory files

Row | Molecule | Clinically Effective Dosage Range [1] | Upper Limits, CRN-listed Nutrients (adults (18+ yrs.)) | Dataset 2 Clinical Efficacy [1] | Dataset 1 Upper Limits [8] | further results
1 | [K+] [Potassium] | 470-5,000 mg | 1,500 mg |  |  | 
2 | [Mo] [Molybdenum] | 0.0045 to 0.467 mg |  |  |  | Upper Limits, CRN-listed Nutrients (in vivo): 0.35 mg
3 | [Mn+2] [Manganese] | 0.23 to 30 mg | 10 mg | 0.23 to 30 mg | 10 mg | 
4 | CC1=C(/C=C/C(C)=C/C=C/C(C)=C/C=C/C=C(C)/C=C/C=C(C)/C=C/C2=C(C)C(=O)[C@@H](O)CC2(C)C)C(C)(C)C[C@H](O)C1=O [Astaxanthin] | 4 to 100 mg |  |  |  | Upper Limits, Other Nutrients (in vivo): 5.3 mg
5 | O=C(O)CCCC[C@@H]1SC[C@@H]2NC(=O)N[C@@H]21 [Biotin] | 3-15,000 mcg | 2,500 mcg | 0.003 to 15 mg | 2.5 mg | 
6 | [B] [Boron] | 0.2 to 11.6 mg |  |  |  | Upper Limits, CRN-listed Nutrients (in vivo): 6 mg
7 | CC/C=C\C/C=C\C/C=C\CCCCCCCC(=O)O [Alpha-Linolenic Acid] |  |  |  |  | Upper Limits, Other Nutrients (in vivo): 25000 mg
8 | O=C(O)c1cccnc1 [Nicotinic Acid] | 1.6-3,000 mg | 250 mg |  |  | 
9 | [Fe] [Iron] | 1.8 to 120 mg |  | 125 to 2000 mg |  | Dataset 1 Upper Limits (in vivo): 60 mg; Upper Limits, CRN-listed Nutrients (in vivo): 60 mg
10 | CC1=C(/C=C/C(C)=C/C=C/C(C)=C/C=C/C=C(C)/C=C/C=C(C)/C=C/C2=C(C)C[C@@H](O)CC2(C)C)C(C)(C)C[C@H](O)C1 [Zeaxanthin] | 0.01 to 10 mg |  |  |  | Upper Limits, Other Nutrients (in vivo): 10 mg
11 | Cc1ncc(C[n+]2csc(CCO)c2C)c(N)n1 [Vitamin B1 (thiamin), thiamin] | 0.12-1,000 mg | 100 mg | 0.12-1000^ mg | 100 mg | 
12 | CC1=CCCC(C)(C)C1/C=C/C(C)=C/C=C/C(C)=C/C=C/C=C(C)/C=C/C=C(C)/C=C/C1=C(C)CCCC1(C)C (stereo not drawn) [Alpha-Carotene] | 0.01 to 5 mg |  |  |  | Upper Limits, Other Nutrients [9]: 8.3 mg
13 | CC1=C[C@H](O)CC(C)(C)[C@H]1/C=C/C(C)=C/C=C/C(C)=C/C=C/C=C(C)/C=C/C=C(C)/C=C/C1=C(C)C[C@@H](O)CC1(C)C [Lutein] | 0.1 to 20 mg |  | 0.1 to 20 mg |  | Dataset 1 Upper Limits (in vivo): 17.6 mg; Upper Limits, Other Nutrients (in vivo): 17.6 mg
14 | cyanocobalamin [Vitamin B12] | 0.24-2,500 mcg |  | 0.24-2500^ mcg |  | Dataset 1 Upper Limits (in vivo): 3 mg; Upper Limits, CRN-listed Nutrients (in vivo): 3,000 mcg
15 | [Ca+2] [Calcium] | 130-2,000 mg | 1,500 mg | 130 to 2000 mg | 1500 mg | risk of cardiovascular disease death [2]: associated with an excess risk of cardiovascular disease death; risk of myocardial infarction [3]: raised the risk of myocardial infarction
16 | NC(=O)c1cccnc1 [Nicotinamide] | 1.6-3,000 mg | 1,500 mg | 1.6 to 3000 mg | 1500 mg | 
17 | Cc1c(C)c2c(c(C)c1O)CC[C@@](C)(CCC[C@H](C)CCC[C@H](C)CCCC(C)C)O2 [Vitamin E, RRR-alpha-tocopherol] | 1.5-1,342 mg |  | 1.5 to 1342 mg | 1000 mg | mortality [4]: increased mortality; effects on cardiovascular health or cancer prevention [5]: no effects; risk for cardiovascular disease [6]: did not reduce the risk; UL (Upper Limit) (healthy US adults, Embodiment 1): 1,000 mg

Row | Molecule | Clinically Effective Dosage Range [1] | Upper Limits, CRN-listed Nutrients (adults (18+ yrs.)) | Dataset 2 Clinical Efficacy [1] | Dataset 1 Upper Limits [8] | further results
18 | [O-2].[Zn+2] [Zinc] | 1.1 to 80 mg | 30 mg | 1.1 to 80 mg | 30 mg | 
19 | Nc1nc2ncc(CNc3ccc(C(=O)N[C@@H](CCC(=O)O)C(=O)O)cc3)nc2c(=O)[nH]1 [Folic Acid] | 40-5,000 mcg |  | 0.04 to 5 mg |  | bioavailability ([7]; folic acid in supplements versus folic acid in foods (folates)): higher bioavailability
20 | C[N+](C)(C)CCO [Choline] |  |  |  |  | Upper Limits, Other Nutrients [9]: 3,500 mg
21 | CC1=C(/C=C/C(C)=C/C=C/C(C)=C/CO)C(C)(C)CCC1 [Vitamin A (retinol and its esters), retinol] | 90-3,300 mcg |  | 0.09 to 3.3 mg |  | Dataset 1 Upper Limits (in vivo): 1.5 mg; Upper Limits, CRN-listed Nutrients (in vivo): 1,500 mcg
22 | CC(C)=CCC/C(C)=C/C=C/C(C)=C/C=C/C(C)=C/C=C/C=C(C)/C=C/C=C(C)/C=C/C=C(\C)CCC=C(C)C [Lycopene] | 0.2 to 30 mg |  |  |  | Upper Limits, Other Nutrients [9]: 11.3 mg
23 | [Cu] [Copper] | 0.09 to 8 mg |  | 0.09 to 8 mg |  | Dataset 1 Upper Limits (in vivo): 9 mg; Upper Limits, CRN-listed Nutrients (in vivo): 9 mg
24 | C=C1CC[C@H](O)C/C1=C/C=C1\CCC[C@]2(C)[C@@H]([C@H](C)CCCC(C)C)CC[C@@H]12 [Vitamin D, cholecalciferol] | 0.002 to 0.25 mg |  | 0.002 to 0.25 mg |  | 
25 | [Cr] [Chromium] | 3.5-1,000 mcg | 1,000 mcg | 0.0035 to 1 mg | 1 mg | 
26 | [O]=[Mg] [magnesium oxide] |  |  |  |  | bioavailability ([7]; versus most organic magnesium salts or chelates (citrate, malate, glycinate)): lower bioavailability
27 | O=C1O[C@H]([C@@H](O)CO)C(O)=C1O [Vitamin C, ascorbic acid] | 9-10,000 mg |  | 9 to 10000 mg |  | 
28 | [Mg+2] [Magnesium] | 42-1,200 mg | 400 mg | 42 to 1200 mg | 400 mg | 
29 | CC1=C(/C=C/C(C)=C/C=C/C(C)=C/C=C/C=C(C)/C=C/C=C(C)/C=C/C2=C(C)CCCC2(C)C)C(C)(C)CCC1 [Beta-Carotene] | 1 to 180 mg |  |  |  | Upper Limits, CRN-listed Nutrients (adults (18+ yrs.), non-smokers): 25 mg
30 | [P] [Phosphorus] | 125-2,000 mg | 1,500 mg |  |  | 
31 | [Se] [Selenium] | 0.0055 to 0.2 mg |  | 5.5-200^ mcg |  | Dataset 1 Upper Limits (in vivo): 0.2 mg; Upper Limits, CRN-listed Nutrients (in vivo): 0.2 mg
32 | Cc1ncc(CO)c(CO)c1O [Vitamin B6 (pyridoxine), pyridoxine] | 0.17 to 200 mg | 100 mg | 0.17 to 200 mg | 100 mg | 
33 | Vitamin K | 12-1,000 mcg |  |  |  | Upper Limits, CRN-listed Nutrients (in vivo): 10 mg
